Key:
Assay type in all cases: cell-based
[1] = tested on: Mycobacterium tuberculosis, strain H37Ra; test: Antimycobacterial activity against M. tuberculosis H37Ra (luminescence, dose-response); details: for IC50: Mycobacterium tuberculosis, 168 h, H37Ra lux, luminescence at day 7, top concentration 64 μM; for SI (selectivity index): calculated with the formula CC50/IC50 (MRC-5 cytotoxicity / H37Ra); for activity against Mtb H37Ra (in words): SAR discussion
Mycobacterium abscessus = test: microbe, parasite or virus in culture; details: Mycobacteroides abscessus, 72 h, read-out: IC50 against M. abscessus
[2] = In vitro cytotoxicity, resazurin assay; details: human, MRC-5 fibroblast cells (ATCC CCL-171), 3 days exposure
Experimental: In vitro cytotoxicity was evaluated on the MRC-5 Homo sapiens […] fibroblast cell line (ATCC CCL-171). The MRC-5 cells were cultured in 75 cm^2 sterile Dulbecco’s modified Eagle’s medium (DMEM) supplemented with 10% heat-inactivated fetal calf serum in a 5% CO2 atmosphere at 37 °C. When a semiconfluent layer of cells was formed, the cells were trypsinized, washed with sterile PBS, seeded into a transparent, flat-bottomed 96-well plate at a density of 4 × 10^4 cells per well and left for recovery at 37 °C, 5% CO2 for at least 24 h. For each compound, a 2-fold serial dilution was made in complete DMEM with final concentrations ranging from 128 μM to 0.5 μM. Subsequently, the MRC-5 cells were exposed to the compounds by adding 100 μL of the serial dilutions to the wells. Test plates were incubated for 3 days in an atmosphere of 5% CO2 at 37 °C. For the resazurin assay, the cells were washed 2 times with 200 μL PBS, and 100 μL resazurin working solution was added per well. Subsequently, the plates were incubated at 37 °C, 5% CO2 for 3 h. To monitor the viable cell number after compound exposure, each well was analyzed using a microplate fluorometer equipped with a 560 nm excitation/590 nm emission filter set.

Compound	IC50 [1] [µM]	SI (selectivity index) [1]	also measured
CSc1ccc(-c2c(NCc3ccccn3)c(=O)c2=O)cc1 [Compound 6e, 3-(4-(Methylthio)phenyl)-4-((pyridin-2-ylmethyl)amino)cyclobut-3-ene-1,2-dione]	4.56	> 14.0	–
Cc1ccc(-c2c(NCc3ccccn3)c(=O)c2=O)cc1 [Compound 6a, 3-((Pyridin-2-ylmethyl)amino)-4-(p-tolyl)cyclobut-3-ene-1,2-dione]	2.01	> 31.8	–
COc1nc2ccc(Br)cc2cc1[C@@H](c1ccccc1)[C@@](O)(CCN(C)C)c1cccc2ccccc12 [Bedaquiline, reference compound]	0.01	–	–
O=c1c(NCc2ccccn2)c(-c2cccc3ccccc23)c1=O [Compound 6s, 3-(Naphthalen-1-yl)-4-((pyridin-2-ylmethyl)amino)cyclobut-3-ene-1,2-dione]	> 64	–	–
COc1ccc(-c2c(NCc3ccccn3)c(=O)c2=O)cc1Cl [Compound 6l, 3-(3-Chloro-4-methoxyphenyl)-4-((pyridin-2-ylmethyl)amino)cyclobut-3-ene-1,2-dione]	1.51	> 42.4	–
O=c1c(NCc2ccccn2)c(-c2ccc(O)cc2)c1=O [Compound 6c, 3-(4-Hydroxyphenyl)-4-((pyridin-2-ylmethyl)amino)cyclobut-3-ene-1,2-dione]	21.9	> 2.9	–
CC(C)(C)Oc1ccc(-c2c(NCc3ccccn3)c(=O)c2=O)cc1 [Compound 6f, 3-(4-(tert-Butoxy)phenyl)-4-((pyridin-2-ylmethyl)amino)cyclobut-3-ene-1,2-dione]	4.67	> 13.7	–
O=c1c(NCc2ccccn2)c(-c2ccsc2)c1=O [Compound 6y, 3-((Pyridin-2-ylmethyl)amino)-4-(thiophen-3-yl)cyclobut-3-ene-1,2-dione]	> 64	–	–
O=c1c(NCc2ccccn2)c(-c2ccc(F)c(F)c2)c1=O [Compound 6n, 3-(3,4-Difluorophenyl)-4-((pyridin-2-ylmethyl)amino)cyclobut-3-ene-1,2-dione]	2.46	> 26.0	–
CCCCOc1ccc(-c2c(NCc3ccccn3)c(=O)c2=O)c(F)c1F [Compound 6q, 3-(4-Butoxy-2,3-difluorophenyl)-4-((pyridin-2-ylmethyl)amino)cyclobut-3-ene-1,2-dione]	> 64	–	activity against Mtb H37Ra (in words) [1]: completely inactive
Cc1ccc(-c2c(NCc3ccccn3)c(=O)c2=O)s1 [Compound 6z, 3-(5-Methylthiophen-2-yl)-4-((pyridin-2-ylmethyl)amino)cyclobut-3-ene-1,2-dione]	2.98	> 21.5	–
O=c1c(NCc2ccccn2)c(-c2ccc(OCc3ccccc3)cc2)c1=O [Compound 6i, 3-(4-(Benzyloxy)phenyl)-4-((pyridin-2-ylmethyl)amino)cyclobut-3-ene-1,2-dione]	> 64	–	–
COc1ccc(-c2c(NCc3ccccn3)c(=O)c2=O)c2ccccc12 [Compound 6t, 3-(4-Methoxynaphthalen-1-yl)-4-((pyridin-2-ylmethyl)amino)cyclobut-3-ene-1,2-dione]	> 64	–	–
O=c1c(NCc2ccccn2)c(-c2ccc(OCc3ccccc3)c(Cl)c2)c1=O [Compound 6k, 3-(4-(Benzyloxy)-3-chlorophenyl)-4-((pyridin-2-ylmethyl)amino)cyclobut-3-ene-1,2-dione]	> 64	–	–
O=c1c(NCc2ccccn2)c(-c2ccc(Cl)cc2C(F)(F)F)c1=O [Compound 6m, 3-(4-Chloro-2-(trifluoromethyl)phenyl)-4-((pyridin-2-ylmethyl)amino)cyclobut-3-ene-1,2-dione]	> 64	–	–
COc1ccc(-c2c(NCc3ccccn3)c(=O)c2=O)c(F)c1F [Compound 6o, 3-(2,3-Difluoro-4-methoxyphenyl)-4-((pyridin-2-ylmethyl)amino)cyclobut-3-ene-1,2-dione]	> 64	–	–
O=c1c(NCc2ccccn2)c(-c2ccc(Oc3ccccc3)cc2)c1=O [Compound 6h, 3-(4-Phenoxyphenyl)-4-((pyridin-2-ylmethyl)amino)cyclobut-3-ene-1,2-dione]	> 64	–	–
CCOc1ccc2cc(-c3c(NCc4ccccn4)c(=O)c3=O)ccc2c1 [Compound 6w, 3-(6-Ethoxynaphthalen-2-yl)-4-((pyridin-2-ylmethyl)amino)cyclobut-3-ene-1,2-dione]	> 64	–	activity against Mtb H37Ra (in words) [1]: completely inactive
CCCOc1ccc(-c2c(NCc3ccccn3)c(=O)c2=O)c(F)c1F [Compound 6p, 3-(2,3-Difluoro-4-propoxyphenyl)-4-((pyridin-2-ylmethyl)amino)cyclobut-3-ene-1,2-dione]	> 64	–	activity against Mtb H37Ra (in words) [1]: completely inactive
COc1c(N2C[C@@H]3CCCN[C@@H]3C2)c(F)cc2c(=O)c(C(=O)O)cn(C3CC3)c12 [Moxifloxacin]	–	–	IC50 (Mycobacterium abscessus): 1.74 µM
CC/C(=C(\c1ccccc1)c1ccc(OCCN(C)C)cc1)c1ccccc1 [Tamoxifen]	–	–	IC50 at 3 days [2]: 12.3 µM
O=c1c(NCc2ccccn2)c(-c2ccoc2)c1=O [Compound 6x, 3-(Furan-3-yl)-4-((pyridin-2-ylmethyl)amino)cyclobut-3-ene-1,2-dione]	29.1	> 2.2	–
O=c1c(NCc2ccccn2)c(-c2ccc(OCc3ccc(F)cc3)cc2)c1=O [Compound 6j, 3-(4-((4-Fluorobenzyl)oxy)phenyl)-4-((pyridin-2-ylmethyl)amino)cyclobut-3-ene-1,2-dione]	> 64	–	–
O=c1c(NCc2ccccn2)c(-c2ccc3c(c2)OCO3)c1=O [Compound 6u, 3-(Benzo[d][1,3]dioxol-5-yl)-4-((pyridin-2-ylmethyl)amino)cyclobut-3-ene-1,2-dione]	19.9	> 3.2	–
O=c1c(NCc2ccccn2)c(-c2ccc(Br)cc2)c1=O [Compound 6b, 3-(4-Bromophenyl)-4-((pyridin-2-ylmethyl)amino)cyclobut-3-ene-1,2-dione]	3.49	> 18.3	–
CCOc1c(C)cc(-c2c(NCc3ccccn3)c(=O)c2=O)cc1C [Compound 6r, 3-(4-Ethoxy-3,5-dimethylphenyl)-4-((pyridin-2-ylmethyl)amino)cyclobut-3-ene-1,2-dione]	13.5	> 4.7	–
O=c1c(NCc2ccccn2)c(-c2ccc3c(c2)OCCO3)c1=O [Compound 6v, 3-(2,3-Dihydrobenzo[b][1,4]dioxin-6-yl)-4-((pyridin-2-ylmethyl)amino)cyclobut-3-ene-1,2-dione]	3.37	> 19.0	–
COCCOc1ccc(-c2c(NCc3ccccn3)c(=O)c2=O)cc1 [Compound 6g, 3-(4-(2-Methoxyethoxy)phenyl)-4-((pyridin-2-ylmethyl)amino)cyclobut-3-ene-1,2-dione]	8.69	> 7.4	–
O=c1c(NCc2ccccn2)c(-c2ccc(OC(F)(F)F)cc2)c1=O [Compound 6d, 3-((Pyridin-2-ylmethyl)amino)-4-(4-(trifluoromethoxy)phenyl)cyclobut-3-ene-1,2-dione]	13.8	> 4.6	–

Source: publication PMC11325506 (ACS Omega, 2024)
